Values belong to the compound of their own block, whether it stands above or below them.
Key:
[1] = system: HCV; assay: Combination studies against HCV in replicon assays; type: cell-based; conditions: Hepatitis C virus; monotherapy; read-out: EC50 (uM), single drug
[2] = biological target: T1, RIG-I (Homo sapiens, UniProt O95786); assay: RIG-I translocation on dsRNA, single-molecule PIFE assay; type: biochemical; conditions: PIFE assay
T1 sequence (O95786 1-925): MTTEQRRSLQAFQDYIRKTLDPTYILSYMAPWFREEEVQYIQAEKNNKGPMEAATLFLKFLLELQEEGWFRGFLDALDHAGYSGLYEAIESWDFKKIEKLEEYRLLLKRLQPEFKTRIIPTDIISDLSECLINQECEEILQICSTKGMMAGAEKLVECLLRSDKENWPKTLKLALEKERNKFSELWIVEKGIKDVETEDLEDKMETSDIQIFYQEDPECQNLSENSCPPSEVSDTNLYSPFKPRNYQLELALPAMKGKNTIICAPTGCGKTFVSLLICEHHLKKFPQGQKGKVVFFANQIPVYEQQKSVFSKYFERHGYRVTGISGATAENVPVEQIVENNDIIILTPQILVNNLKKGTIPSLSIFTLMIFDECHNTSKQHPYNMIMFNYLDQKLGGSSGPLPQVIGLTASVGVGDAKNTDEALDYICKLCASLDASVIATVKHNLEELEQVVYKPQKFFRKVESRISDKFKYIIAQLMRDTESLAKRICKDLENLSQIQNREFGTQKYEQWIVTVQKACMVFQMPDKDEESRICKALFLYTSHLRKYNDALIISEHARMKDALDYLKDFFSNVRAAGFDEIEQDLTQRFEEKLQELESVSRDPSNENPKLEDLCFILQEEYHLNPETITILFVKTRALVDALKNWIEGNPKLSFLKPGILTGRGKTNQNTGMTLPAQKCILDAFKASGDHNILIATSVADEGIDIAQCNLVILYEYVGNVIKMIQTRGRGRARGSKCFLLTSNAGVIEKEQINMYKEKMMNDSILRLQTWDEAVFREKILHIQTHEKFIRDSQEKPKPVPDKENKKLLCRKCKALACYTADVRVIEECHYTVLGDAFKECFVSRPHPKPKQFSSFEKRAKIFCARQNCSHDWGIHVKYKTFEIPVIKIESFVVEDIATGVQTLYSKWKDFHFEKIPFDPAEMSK
Method: An in vitro single-molecule fluorescence assay termed PIFE (protein induced fluorescence enhancement) was employed to monitor such movement (Myong, S. et al., Science, 323, 1070, 2009).
For quantitation of RIG-I translocation, Single molecule PIFE yields were estimated. Single molecule PIFE yields are obtained from several hundred molecules simultaneously, allowing statistically reliable data collection.
The translocation as above was carried out using different concentrations of nucleotide compound.
A standard dsRNA (25 bp) was used as a main substrate for RIG-I translocation assay. […] The ratio between rapid (stimulated) translocation and slow translocation would be accounted for in the estimation of compound strength. In order to quantify the affinity of the compound to RIG-I or to RNA substrate, various concentrations of the compound (1-100 μM range) were used in the assay. This enabled the calculation of the association/dissociation constant for each compound, which was a useful measure to apply in cell-based evaluation of compound potency.
The same translocation assay was used on dsRNA, which contains […] moiety with and without the compound.

[3] = system: HBV-3TC-R4 LMMV; type: cell-based; conditions: Hepatitis B virus
[4] = system: HBV WT; assay: HepG2.2.15 cell-based HBV assay, wild type; conditions: Hepatitis B virus, HBV WT, 9 daily doses; for EC50: read-out: EC50; for EC90: read-out: EC90
Method: Selected compounds were evaluated in in vitro cell-based HepG2.2.15 HBV assay.
Antiviral analysis. For the antiviral analyses, confluent cultures of 2.2.1.5 cells were maintained on 96-well flat-bottomed tissue culture plates in RPMI1640 medium with 2% fetal bovine serum. Cultures (6 per each test concentration on two replicate plates) were treated with 9 consecutive daily doses of the test compounds. Medium was changed daily with fresh test compounds. HBV nucleic acid and protein levels were measured 24 hours after the last treatment. Extracellular (virion) HBV DNA levels were assessed by quantitative blot hybridization. Intracellular HBV DNA levels were measured by quantitative Southern blot hybridization.
The uptake of neutral red dye was used to determine the relative level of toxicity 24 hours following the last treatment. The absorbance of internalized dye at […] (A510) was used for the semi-quantitative analysis. Values are presented as a percentage of the average A510 values (±standard deviations) in 9 separate cultures of untreated cells maintained on the 96-well plates seeded at the same time with the identical pool of stock cells used for the antiviral analyses and maintained in an identical manner. A total of 3 cultures were treated with each concentration of the test compound.

[5] = system: human hepatitis B virus; assay: Anti-HBV activity in the HBV transgenic mouse model, oral administration; type: in vivo, transgenic mice; conditions: 10 mg/kg/d, oral, once daily 14 days
Method: Compound 6k was evaluated for anti-HBV activity in the transgenic mouse model of HBV infection. Male transgenic mouse infected with HBV, with age ranging from 78 to 108 days were used. Compound 6k was initially evaluated at a single dose of 300 mg/kg, administered daily for 14 days by oral gavage. The compounds were administered in citric acid and adefovir dipivoxil was used as a positive control. A control group which received vehicle was used a negative control. Following the treatment, mice were sacrificed and liver tissue analyzed for HBV DNA using Southern blot analysis. The data was statistically evaluated using Kruskall-Wallis non-parametric ANOVA.
(§1) (a) Male and female transgenic mice (founder 1.3.32) were infected with human hepatitis B virus. Following infection, animals were orally administered Compound 6k, or a placebo of 0.05 M citric acid, pH 2.0 once daily for 14 days. Dosage was 300 mg/kg/d for Compound 6k. The positive control, ADV, was administered at 10 mg/kg/d.
as §1, with “Male” for “(a) Male”, “add,” for “acid,”, “Dosages were 100, 10.5 and 1” for “Dosage was 300”, “6K.” for “6k.”

[6] = system: human hepatitis B virus; assay: as above; type: in vivo, transgenic mice; conditions: p.o., qd × 14 d
[7] = system: hepatitis B virus (HBV); assay: Effect of i.p. administration on hepatitis B virus in transgenic mice; type: in vivo
Method: Compound 5 was evaluated in transgenic mice expressing hepatitis B virus (HBV). […] Its activity was also similar to the adefovir dipivoxil (ADV) anti-HBV activity; however, the two compounds seemed to suppress different HBV DNA species. […] In contrast, Compound 5 appeared to indiscriminately remose all HBV DNA species, including the bands typically left by ADV, which may reflect a different mechanism of action other than classical chain termination. Serum HBe, liver HBs, and HBc were not affected by Compound 5 treatment, which is consistent in transgenic mice with compounds that block viral synthesis “downstream” from mRNA synthesis, such as blockage of polymerase activities. A minimal effective dosage was determined to be between 1.6-0.5 mg/kg/day, which was similar to ADV minimal effective dosage of 1.0 mg/kg/day (Table 8).

[8] = Cytotoxicity by neutral red dye uptake in HCV replicon cultures; type: cell-based; conditions: human, AVA5 HCV replicon cell line (sub-genomic CON1, genotype 1b); single drug, Table 9; read-out: CC50
Method: Antiviral activity against HCV was assessed in a 3-day assay (Okuse, et al., 2005; Antiviral. Res. 65:23; Korba, et al., 2008, Antiviral Res. 77:56) using the stably-expressing HCV replicon cell line, AVA5 (sub-genomic (CON1), genotype 1b) (Blight, et al., 2000; Science 290:1972) maintained as sub-confluent cultures on 96-well plates. Antiviral activity was determined by blot hybridization analysis of intracellular HCV RNA (normalized to the level of cellular B-actin RNA in each culture sample). Cytotoxicity was assessed by neutral red dye uptake in cultures maintained in parallel plates.
EC50, EC90, and CC50 values were calculated by linear regression analysis (MS EXCEL®, QuattroPro®) using data combined from all treated cultures Korba & Gerin, 1992, Antivir. Res. 19:55; Okuse, et al., 2005, Antivir. Res. 65:23). […]
Combination treatments are conducted as previously described. Briefly, two agents were mixed together at a pre-determined concentration ratio. […] Analysis of drug interactions in the combination studies was determined by the use of the CALCUSYN program (Biosoft, Inc., Cambridge, United Kingdom). […]

Compound: NC(=O)c1ncn([C@@H]2O[C@H](CO)[C@@H](O)[C@H]2O)n1 [Ribavirin]
- EC50 [1]: > 30 µM

- RIG-I translocation on dsRNA (activity in words) [2]: varying degrees of RIG-I translocation
Compound: CO[C@H]1C(OP(=O)(O)OC[C@H]2O[C@@H](n3cnc4c(N)ncnc43)CC2O)[C@@H](CO)O[C@H]1n1ccc(=O)[nH]c1=O (some centres unmarked) [SB 70]

Compound: Nc1ccn([C@@H]2CS[C@H](CO)O2)c(=O)n1 [Compound 3TC, Lamivudine]
- EC50 [3]: > 100000 nM
- EC90 [3]: > 100000 nM
- EC50 [4]: 200 nM
- EC90 [4]: 700 nM

- RIG-I translocation on dsRNA (activity in words) [2]: varying degrees of RIG-I translocation
Compound: CO[C@H]1C(OP(=O)(O)OC[C@H]2O[C@@H](n3cnc4c(N)ncnc43)CC2O)[C@@H](COP(=O)(O)OP(=O)(O)OP(=O)(O)O)O[C@H]1n1ccc(=O)[nH]c1=O (some centres unmarked) [SB 80]

Compound: CC(C)(C)C(=O)OCOP(=O)(COCCn1cnc2c(N)ncnc21)OCOC(=O)C(C)(C)C [ADV, adefovir dipivoxil, reference compound]
- Liver HBV RNA (log transcripts ± sd) [5]: 10.5 ± 0.4 log transcripts
- QPCR Liver HBV DNA (pg/μg mean ± sd) [5]: 1.7 ± 1.1 pg/µg
- Southern blot Liver HBV DNA (pg/μg mean ± sd) [5]: 0.9 ± 1.1 pg/µg
- EC50 [3]: 2200 nM
- EC90 [3]: 8300 nM
- Liver HBV DNA Southern blot (pg/μg mean ± sd) ([6]; 0.032 mg/kg/d): 8.3 ± 11.3 (3) pg/μg
- Liver HBV DNA Southern blot (pg/μg mean ± sd) ([6]; 0.10 mg/kg/d): 15.6 ± 13.7 (4) pg/μg
- EC50 [4]: 1500 nM
- EC90 [4]: 7000 nM
- Liver HBV DNA (mean pg viral/μg cellular DNA ± stdev) ([7]; 10 mg/kg/d, once daily 14 days): 2.7 ± 1.4 (9) pg viral/μg cellular DNA
- Serum HBV DNA (mean log10 genome equivalents/mL serum ± stdev) ([7]; 10 mg/kg/d, once daily 14 days): 4.9 ± 0.4 (9) log10 genome equivalents/mL serum
- minimal effective dosage ([7]; HBV transgenic mice): 1.0 mg/kg/day

Compound: CC(C)[C@H](N)C(=O)O[C@@H]1[C@@H](CO)O[C@@H](n2ccc(N)nc2=O)[C@]1(C)O [2C MeCyt (NM 283)]
- EC50 [1]: 1.4 µM

- RIG-I translocation on dsRNA (activity in words) [2]: varying degrees of RIG-I translocation
Compound: Nc1ncnc2c1ccn2[C@H]1CC(OP(=O)(O)OC[C@H]2O[C@@H](n3cnc4c(N)ncnc43)CC2O)[C@@H](COP(=O)(O)OP(=O)(O)OP(=O)(O)O)O1 (some centres unmarked) [SB 90]

Compound: CCC[C@H](NC(=O)[C@@H]1[C@H]2CCC[C@H]2CN1C(=O)[C@@H](NC(=O)[C@@H](NC(=O)c1cnccn1)C1CCCCC1)C(C)(C)C)C(=O)C(=O)NC1CC1 [Vertex (telaprevir), telaprevir, reference compound]
- CC50 at 3 day [8]: < 80000 nM
- EC50 [1]: 0.25 µM
